For one data set, the system named is human erythrocytes. Kind of data set: Hemolytic activity. The data set is classed as cell-based. The conditions noted are these: 0.1–100 μmol L^−1 in PBS, room temperature, 1 h, absorbance 405 nm. The procedure:
Assays against freshly collected human erythrocytes were performed following protocols described by Pedron et al.[54]. Briefly, peptide aliquots at concentrations ranging from 0.1 to 100 μmol L^−1 were incubated with a suspension of erythrocytes at room temperature for 1 h. The samples were then centrifuged, and the absorbance of the supernatant was measured at 405 nm. […] The surfactant SDS and PBS buffer were used as positive[81],[82] and negative controls, respectively. Sodium heparin was used as an anticoagulant when collecting human blood. Three biological repeats were performed. All experiments were performed in accordance with the protocol CEUA/IB #I-1345/15 approved by the Instituto Butantan.

Data set [1] in a line: Resistance to proteolytic degradation in fetal bovine serum. The conditions noted are these: 25% fetal bovine serum in water, 37 °C; for Peptide remaining: LC peak area, time 0 = 100. It is filed as in vitro ADME. The procedure:
Stability assays were performed following the protocol described by Torres et al.[67]. Briefly, a peptide solution was added to GIBCO fetal bovine serum diluted to 25% in water and kept at 37 °C. The degradation kinetics were monitored by liquid chromatography and the percentage of peptide remaining in each case was calculated by integrating the peptide peak area. These experiments were performed as three independent replicates, and aliquots were taken at 0, 0.5, 1, 2, 4, and 6 h.

The subject of the next data set is A. baumannii ATCC 19606. Nature of the data set: Skin abscess infection mouse model, CFU quantification. The data set is classed as in vivo, Acinetobacter baumannii (in female CD-1 mice). The conditions noted are these: female CD-1 mice, 1 × 10^7 CFU, peptide onto the abscess at MIC. The procedure:
(§1) The anti-infective activity of the peptides VmCT1, temporin A, VT, and TV against A. baumannii ATCC 19606 was evaluated as described by Torres et al.[7],[83] Bacteria were grown in tryptic soy broth medium to an optical density of 0.5 at 600 nm. Cells were washed twice with sterile phosphate-buffered saline (pH 7.4, 13,000 rpm for 1 min) and resuspended to a final concentration of 1 × 10^7 CFU/20 μL. To generate the skin infection, female CD-1 mice (6-weeks-old) were first anesthetized with isoflurane and their backs were shaved. Using a needle, a superficial linear abrasion was made on the shaved area of the mice to injure just the stratum corneum and the upper layer of the epidermis. An aliquot of 20 μL containing 1 × 10^7 CFU of A. baumannii was then inoculated over the wound area with a pipette tip. The next day, the infected area was treated with the peptides (i.e., VmCT1, temporin A, VT, and TV), which were administered onto the abscess at their MIC. The animals were euthanized, and the scarified skin area removed 2- and 4-days post-infection. The excised area was homogenized using a bead beater for 20 min (25 Hz) and serially diluted for CFU quantification. Eight mice were used per group (n = 8). All experiments were performed in accordance with protocol 806763 approved by the IACUC at the University of Pennsylvania.

Data set [2] in a line: Mouse body weight in the skin abscess infection model. The data set is classed as in vivo. The procedure: as §1

No end group written: not given here.

For the substance FLGSLWRKAGTVF-NH2 [VD], in the data set on human erythrocytes, the “Hemolytic activity (concentration of peptide needed to kill 10% of red blood cells)” value is on record as “no hemolytic activity was detected”. Besides, the Peptide remaining is reported as 33.7 in data set [1] (0.5 h, replicate 1); 43.8 in data set [1] (0.5 h, replicate 2); 94.3 in data set [1] (0.5 h, replicate 3); 66.3 in data set [1] (1 h, replicate 1); 77.3 in data set [1] (1 h, replicate 2); 49.4 in data set [1] (1 h, replicate 3). Also, the Peptide remaining is given as 38.2 in data set [1] (2 h, replicate 1); 88.5 in data set [1] (2 h, replicate 2); 63.8 in data set [1] (2 h, replicate 3); 66.4 in data set [1] (4 h, replicate 1); 45.3 in data set [1] (4 h, replicate 2); 44.7 in data set [1] (4 h, replicate 3). The Peptide remaining was determined as 56.9 in data set [1] (6 h, replicate 1); 59.8 in data set [1] (6 h, replicate 2); 0.0 in data set [1] (6 h, replicate 3).

As to GLGALLNVIKSGL-NH2 [AV], the “Hemolytic activity (concentration of peptide needed to kill 10% of red blood cells)” value with human erythrocytes was 100 µmol/L. Moreover, the Peptide remaining is recorded as 31.1 in data set [1] (0.5 h, replicate 1); 34.0 in data set [1] (0.5 h, replicate 2); 0.0 in data set [1] (0.5 h, replicate 3); 27.7 in data set [1] (1 h, replicate 1); 32.8 in data set [1] (1 h, replicate 2); 0.0 in data set [1] (1 h, replicate 3). Further, the Peptide remaining in data set [1] (2 h, replicate 1) was 39.7; in data set [1] (2 h, replicate 2) it was 49.0; in data set [1] (2 h, replicate 3) it was 0.0; in data set [1] (4 h, replicate 1), 26.2; in data set [1] (4 h, replicate 2), 41.8; in data set [1] (4 h, replicate 3), 0.0. Besides, the Peptide remaining amounted to 0.0 in data set [1] (6 h, replicate 1); 0.0 in data set [1] (6 h, replicate 2); 0.0 in data set [1] (6 h, replicate 3).

The term share remaining denotes what is left of the initial amount, in per cent. Regarding “GLLKRIKTLL-NH2 [Anoplin, reference compound]”, in the data set on human erythrocytes, the “Hemolytic activity (concentration of peptide needed to kill 10% of red blood cells)” value stood at 50 µmol/L. Also, the Peptide remaining in data set [1] (0.5 h, replicate 1) turned out to be 22.7; in data set [1] (0.5 h, replicate 2) it was 28.8; in data set [1] (0.5 h, replicate 3), 20.2; in data set [1] (1 h, replicate 1), 20.4; in data set [1] (1 h, replicate 2), 17.5; in data set [1] (1 h, replicate 3) it was 19.1. In addition, the Peptide remaining in data set [1] (2 h, replicate 1) was 14.2; in data set [1] (2 h, replicate 2), 14.0; in data set [1] (2 h, replicate 3) it was 0.0; in data set [1] (4 h, replicate 1), 0.0; in data set [1] (4 h, replicate 2) it was 0.0; in data set [1] (4 h, replicate 3), 0.0. For the same substance, the Peptide remaining is recorded as 0.0 in data set [1] (6 h, replicate 1); 0.0 in data set [1] (6 h, replicate 2); 0.0 in data set [1] (6 h, replicate 3). In addition, the share remaining at 0.5 h in data set [1] (fetal bovine serum, 25% in water, LC peak area vs time 0, 30 min, three replicates, read-out: Peptide remaining after 30 min) was less than 50%.

Turning to SLGALINVLKSGG-NH2 [DV], in the data set on human erythrocytes, the “Hemolytic activity (concentration of peptide needed to kill 10% of red blood cells)” value amounted to 0.1 µmol/L. Further, the Peptide remaining in data set [1] (0.5 h, replicate 1) amounted to 13.4; in data set [1] (0.5 h, replicate 2), 10.6; in data set [1] (0.5 h, replicate 3) it was 0.0; in data set [1] (1 h, replicate 1), 0.0; in data set [1] (1 h, replicate 2), 0.0; in data set [1] (1 h, replicate 3), 0.0. In addition, the Peptide remaining in data set [1] (2 h, replicate 1) came to 0.0; in data set [1] (2 h, replicate 2), 0.0; in data set [1] (2 h, replicate 3) it was 0.0; in data set [1] (4 h, replicate 1) it was 0.0; in data set [1] (4 h, replicate 2), 0.0; in data set [1] (4 h, replicate 3) it was 0.0. Moreover, the Peptide remaining is 0.0 in data set [1] (6 h, replicate 1); 0.0 in data set [1] (6 h, replicate 2); 0.0 in data set [1] (6 h, replicate 3).

For polymyxin B, the “A. baumannii load in the infected skin area (CFU quantification)” value (“A. baumannii load” below) with A. baumannii ATCC 19606 (Day 2, mouse 1 of 8) came out at 2000; in the data set with A. baumannii ATCC 19606 (Day 2, mouse 2 of 8), 4000; in the data set on A. baumannii ATCC 19606 (Day 2, mouse 3 of 8), 8000; with A. baumannii ATCC 19606 (Day 2, mouse 4 of 8), 8000; in the data set with A. baumannii ATCC 19606 (Day 2, mouse 5 of 8), 8000; with A. baumannii ATCC 19606 (Day 2, mouse 6 of 8), 4000. In addition, the “A. baumannii load” value with A. baumannii ATCC 19606 (Day 2, mouse 7 of 8) was 4000; with A. baumannii ATCC 19606 (Day 2, mouse 8 of 8), 2000; in the data set with A. baumannii ATCC 19606 (Day 4, mouse 1 of 8), 2000; in the data set on A. baumannii ATCC 19606 (Day 4, mouse 2 of 8), 2000; with A. baumannii ATCC 19606 (Day 4, mouse 3 of 8), 2000; in the data set with A. baumannii ATCC 19606 (Day 4, mouse 4 of 8), 2000. Moreover, the “A. baumannii load” value in the data set with A. baumannii ATCC 19606 (Day 4, mouse 5 of 8) is recorded as 4000; in the data set on A. baumannii ATCC 19606 (Day 4, mouse 6 of 8) it was 8000; in the data set on A. baumannii ATCC 19606 (Day 4, mouse 7 of 8), 4000; in the data set with A. baumannii ATCC 19606 (Day 4, mouse 8 of 8), 2000. The “Mouse body weight, normalized to the weight at the beginning of the experiment” value in data set [2] (day 0 = 100, Day 1, replicate 1) is given as 90; in data set [2] (day 0 = 100, Day 1, replicate 2), 95; in data set [2] (day 0 = 100, Day 1, replicate 3), 100; in data set [2] (day 0 = 100, Day 2, replicate 1), 90; in data set [2] (day 0 = 100, Day 2, replicate 2), 100; in data set [2] (day 0 = 100, Day 2, replicate 3) it was 100. Further, the “Mouse body weight, normalized to the weight at the beginning of the experiment” value in data set [2] (day 0 = 100, Day 3, replicate 1) stood at 90; in data set [2] (day 0 = 100, Day 3, replicate 2), 100; in data set [2] (day 0 = 100, Day 3, replicate 3), 105; in data set [2] (day 0 = 100, Day 4, replicate 1), 95; in data set [2] (day 0 = 100, Day 4, replicate 2), 100; in data set [2] (day 0 = 100, Day 4, replicate 3) it was 110.

The values above are taken from PMC10587126, “Molecular hybridization strategy for tuning bioactive peptide function” (Communications Biology, 2023).
